Measurements as given in patent US20240239781A1, “1H-PYRAZOLE DERIVATIVES AS SIGMA LIGANDS” (ACONDICIONAMIENTO TARRASENSE, priority 2021, published 2024).

How the values were obtained:
human σ1 receptor = target: T1, human σ1 receptor (Homo sapiens, UniProt Q99720); assay: Human σ1 receptor radioligand assay ([3H](+)-pentazocine, transfected HEK-293 membranes); conditions: class scale, read-out: Binding σ-1 Ki
T1 construct: expressed in transfected cells; host or cells: HEK-293
Outline: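 Compounds were tested at a single 1 or 10 μM concentration (% inhibition) or at five concentrations to give Ki. They competed with 5 nM [3H](+)-pentazocine for transfected HEK-293 membranes (7 μg) in 50 mM Tris-HCl pH 8 at 37° C for 120 minutes. Nonspecific binding was set with 10 μM haloperidol, and a filtration scintillation read-out was used.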

human σ2/TMEM97 receptor = target: T2, human σ2/TMEM97 receptor (Homo sapiens, UniProt Q5BJF2); assay: Binding assay to human σ2/TMEM97 receptor ([3H]-DTG, transfected HEK-293 membranes); conditions: class scale, read-out: Binding σ-2 Ki
T2 construct: expressed in transfected cells; host or cells: HEK-293
Outline: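 Competition against 10 nM [3H]-DTG (Tris-HCl 50 mM, pH 8.0, 25 °C, 120 min) using 15 μg transfected HEK-293 membrane protein, with 10 μM haloperidol defining NSB. Bound radioactivity counted after filtration; results as single-point % inhibition (1 or 10 μM) or five-point Ki.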

T1 sequence (Q99720 whole entry): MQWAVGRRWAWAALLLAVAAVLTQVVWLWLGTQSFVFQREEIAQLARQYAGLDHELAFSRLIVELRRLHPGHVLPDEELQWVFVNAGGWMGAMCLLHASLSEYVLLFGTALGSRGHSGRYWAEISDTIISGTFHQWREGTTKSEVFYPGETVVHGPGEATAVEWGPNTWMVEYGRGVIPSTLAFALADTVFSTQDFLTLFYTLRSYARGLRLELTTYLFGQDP
T2 sequence (Q5BJF2 whole entry): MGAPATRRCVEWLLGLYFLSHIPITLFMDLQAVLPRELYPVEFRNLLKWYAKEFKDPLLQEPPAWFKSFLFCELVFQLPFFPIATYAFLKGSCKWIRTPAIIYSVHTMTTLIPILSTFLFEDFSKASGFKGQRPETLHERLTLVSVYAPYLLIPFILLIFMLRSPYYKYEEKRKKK

| SMILES | Ki (human σ1 receptor) [nM] | Ki (human σ2/TMEM97 receptor) [nM] |
| --- | --- | --- |
| CCn1nc(-c2cc(C)on2)c(C(=O)NC2CCCCN(CCC(C)(C)C)C2)c1Cl (stereo not shown) [Example 206, 5-Chloro-N-(1-(3,3-dimethylbutyl)azepan-3-yl)-1-ethyl-3-(5-methylisoxazol-3-yl)-1H-pyrazole-4-carboxamide] | 500 to 1000 | 500 to 1000 |
| Cc1cc(-c2nn(C)c(Cl)c2C(=O)N2CCC3(CN(CCC(C)(C)C)C3)C2)no1 [Example 105, (5-Chloro-1-methyl-3-(5-methylisoxazol-3-yl)-1H-pyrazol-4-yl)(2-(3,3-dimethylbutyl)-2,6-diazaspiro[3.4]octan-6-yl)methanone] | > 1000 | 100 to 500 |
| Cc1cc(-c2nn(C)c(Cl)c2C(=O)NC2CC3(CCN(Cc4ccccc4)CC3)C2)no1 [Example 153, N-(7-Benzyl-7-azaspiro[3.5]nonan-2-yl)-5-chloro-1-methyl-3-(5-methylisoxazol-3-yl)-1H-pyrazole-4-carboxamide] | 100 to 500 | 100 to 500 |
| CCCN(CCC)CC1CCN(Cc2c(-c3cc(C)on3)nn(C)c2Cl)C1 (stereo not shown) [Example 46, N-((1-((5-Chloro-1-methyl-3-(5-methylisoxazol-3-yl)-1H-pyrazol-4-yl)methyl)pyrrolidin-3-yl)methyl)-N-propylpropan-1-amine] | 100 to 500 | > 1000 |
| CCn1nc(-c2cc(C)on2)c(C(=O)N2CCC3(CCN(CCC(C)(C)C)CC3)CC2)c1Cl [Example 99, (5-Chloro-1-ethyl-3-(5-methylisoxazol-3-yl)-1H-pyrazol-4-yl)(9-(3,3-dimethylbutyl)-3,9-diazaspiro[5.5]undecan-3-yl)methanone] | 500 to 1000 | < 100 |
| Cc1cc(-c2nn(C)c(Cl)c2CN2CC[C@]3(C2)C[C@@H](NCCC(C)(C)C)C3)no1 [Example 76] | 100 to 500 | 100 to 500 |
| Cc1cc(-c2nn(C)c(Cl)c2CN2CCCCC(NCCC(C)(C)C)C2)no1 (stereo not shown) [Example 8, 1-((5-Chloro-1-methyl-3-(5-methylisoxazol-3-yl)-1H-pyrazol-4-yl)methyl)-N-(3,3-dimethylbutyl)azepan-3-amine] | 100 to 500 | 500 to 1000 |
| Cc1cc(-c2nn(C)c(Cl)c2C(=O)NC2CC3(CCN(CC(C)(C)C)CC3)C2)no1 [Example 154, 5-Chloro-1-methyl-3-(5-methylisoxazol-3-yl)-N-(7-neopentyl-7-azaspiro[3.5]nonan-2-yl)-1H-pyrazole-4-carboxamide] | 100 to 500 | 100 to 500 |
| Cc1cc(-c2nn(C)c(Cl)c2CN2CCC(NCCC(C)(C)C)C2)no1 (stereo not shown) [Example 13, 1-((5-Chloro-1-methyl-3-(5-methylisoxazol-3-yl)-1H-pyrazol-4-yl)methyl)-N-(3,3-dimethylbutyl)pyrrolidin-3-amine] | 100 to 500 | 100 to 500 |
| Cc1cc(-c2nn(C)c(Cl)c2CC(=O)N2CCC3(CCN(CCC(C)(C)C)CC3)CC2)no1 [Example 208, 2-(5-Chloro-1-methyl-3-(5-methylisoxazol-3-yl)-1H-pyrazol-4-yl)-1-(9-(3,3-dimethylbutyl)-3,9-diazaspiro[5.5]undecan-3-yl)ethan-1-one] | 500 to 1000 | < 100 |
| Cc1cc(-c2nn(C)c(Cl)c2CN2CCCCC(NCCC(C)C)C2=O)no1 (stereo not shown) [Example 117, 1-((5-Chloro-1-methyl-3-(5-methylisoxazol-3-yl)-1H-pyrazol-4-yl)methyl)-3-(isopentylamino)azepan-2-one] | 100 to 500 | > 1000 |
| Cc1cc(-c2nn(C)c(Cl)c2CN2CCC3(CCN(CCC(C)(C)C)CC3)C2=O)no1 [Example 114, 2-((5-Chloro-1-methyl-3-(5-methylisoxazol-3-yl)-1H-pyrazol-4-yl)methyl)-8-(3,3-dimethylbutyl)-2,8-diazaspiro[4.5]decan-1-one] | 100 to 500 | 100 to 500 |
| CCn1nc(-c2cc(C)on2)c(C(=O)N[C@H]2CC[C@H](NCCC(C)(C)C)CC2)c1Cl [Example 200, 5-Chloro-N-((1r,4r)-4-((3,3-dimethylbutyl)amino)cyclohexyl)-1-ethyl-3-(5-methylisoxazol-3-yl)-1H-pyrazole-4-carboxamide] | 500 to 1000 | < 100 |
| Cn1nc(-c2cccc(C(F)(F)F)n2)c(C(=O)NC2CCN(CCC(C)(C)C)CC2)c1Cl [Example 167, 5-Chloro-N-(1-(3,3-dimethylbutyl)piperidin-4-yl)-1-methyl-3-(6-(trifluoromethyl)pyridin-2-yl)-1H-pyrazole-4-carboxamide] | < 100 | < 100 |
| CCCCNC1CCCCN(Cc2c(-c3cc(C)on3)nn(C)c2Cl)C1 (stereo not shown) [Example 9, N-Butyl-1-((5-chloro-1-methyl-3-(5-methylisoxazol-3-yl)-1H-pyrazol-4-yl)methyl)azepan-3-amine] | > 1000 | 500 to 1000 |
| Cc1cc(-c2nn(C)c(Cl)c2C(=O)N2CCCC3(CN(CCC(C)(C)C)C3)C2)no1 [Example 193, (5-Chloro-1-methyl-3-(5-methylisoxazol-3-yl)-1H-pyrazol-4-yl)(2-(3,3-dimethylbutyl)-2,6-diazaspiro[3.5]nonan-6-yl)methanone] | 500 to 1000 | < 100 |
| Cc1cc(-c2nn(C)c(Cl)c2C(=O)N2CCCCC(NCCc3ccccc3)C2)no1 (stereo not shown) [Example 85, (5-Chloro-1-methyl-3-(5-methylisoxazol-3-yl)-1H-pyrazol-4-yl)(3-(phenethylamino)azepan-1-yl)methanone] | > 1000 | 100 to 500 |
| CCn1nc(-c2ccon2)c(C(=O)N2CC3(CCN(CCC(C)(C)C)CC3)C2)c1Cl [Example 187, (5-Chloro-1-ethyl-3-(isoxazol-3-yl)-1H-pyrazol-4-yl)(7-(3,3-dimethylbutyl)-2,7-diazaspiro[3.5]nonan-2-yl)methanone] | 500 to 1000 | < 100 |
| Cc1cc(-c2nn(C)c(Cl)c2C(=O)N2CCC3(CCN(CCC(C)(C)C)C3)CC2)no1 [Example 87, (5-Chloro-1-methyl-3-(5-methylisoxazol-3-yl)-1H-pyrazol-4-yl)(2-(3,3-dimethylbutyl)-2,8-diazaspiro[4.5]decan-8-yl)methanone] | 500 to 1000 | < 100 |
| Cc1cc(-c2nn(C)c(Cl)c2CN2CCCC(C3(NCCC(C)C)CC3)C2)no1 (stereo not shown) [Example 63, 1-(1-((5-Chloro-1-methyl-3-(5-methylisoxazol-3-yl)-1H-pyrazol-4-yl)methyl)piperidin-3-yl)-N-isopentylcyclopropanamine] | < 100 | 100 to 500 |
| Cc1cc(-c2nn(C)c(Cl)c2CN2CCC3(CC2)CCN(C(C)c2ccccc2)CC3)no1 (stereo not shown) [Example 65, 3-(5-Chloro-1-methyl-4-((9-(1-phenylethyl)-3,9-diazaspiro[5.5]undecan-3-yl)methyl)-1H-pyrazol-3-yl)-5-methylisoxazole] | 100 to 500 | 100 to 500 |
| CCn1nc(-c2cc(C)on2)c(C(=O)N[C@@H]2CCN(CCC(C)(C)C)C2)c1Cl [Example 165, (R)-5-Chloro-N-(1-(3,3-dimethylbutyl)pyrrolidin-3-yl)-1-ethyl-3-(5-methylisoxazol-3-yl)-1H-pyrazole-4-carboxamide] | < 100 | < 100 |
| Cn1nc(-c2cccc(C(F)(F)F)n2)c(CC(=O)N2CCC3(CCN(CCC(C)(C)C)CC3)CC2)c1Cl [Example 213, 2-(5-Chloro-1-methyl-3-(6-(trifluoromethyl)pyridin-2-yl)-1H-pyrazol-4-yl)-1-(9-(3,3-dimethylbutyl)-3,9-diazaspiro[5.5]undecan-3-yl)ethan-1-one] | 100 to 500 | < 100 |
